Experimental data as given in patent publication US11252963B2, “Pesticidally active pyrazole derivatives” (SYNGENTA PARTICIPATIONS AG, priority 2017, dated 2022).
Read-outs that look alike come from different tables or passages of the source.

Assays:
Assay type in all cases: in vivo
[1] = system: Diabrotica balteata (Corn root worm); assay: Diabrotica balteata (Corn root worm) mortality test on sprayed maize sprouts; conditions: 96 h
Procedure: Diabrotica balteata (Corn root worm):
Maize sprouts placed onto an agar layer in 24-well microtiter plates were treated with aqueous test solutions prepared from 10′000 ppm DMSO stock solutions by spraying. After drying, the plates were infested with L2 larvae (6 to 10 per well). The samples were assessed for mortality 4 days after infestation.

[2] = system: Euschistus heros (Neotropical Brown Stink Bug); assay: Euschistus heros (Neotropical Brown Stink Bug): feeding/contact activity; conditions: 120 h
Procedure: Euschistus heros (Neotropical Brown Stink Bug): Feeding/Contact Activity
Soybean leaves on agar in 24-well microtiter plates were sprayed with aqueous test solutions prepared from 10,000 ppm DMSO stock solutions. After drying the leaves were infested with N2 nymphs. The samples were assessed for mortality 5 days after infestation.

[3] = system: Myzus persicae (Green Peach Aphid); assay: Myzus persicae (Green Peach Aphid): feeding/contact activity; conditions: foliar, 144 h
Procedure: Myzus persicae (Green Peach Aphid): Feeding/Contact Activity
Sunflower leaf discs were placed onto agar in a 24-well microtiter plate and sprayed with aqueous test solutions prepared from 10,000 ppm DMSO stock solutions. After drying, the leaf discs were infested with an aphid population of mixed ages. The samples were assessed for mortality 6 days after infestation.

[4] = system: Plutella xylostella (Diamond Back Moth); assay: Plutella xylostella (Diamond Back Moth): feeding/contact activity; conditions: 120 h
Procedure: Plutella xylostella (Diamond Back Moth): Feeding/Contact Activity
24-well microtiter plates with artificial diet were treated with aqueous test solutions prepared from 10′000 ppm DMSO stock solutions by pipetting. After drying, the plates were infested with L2 larvae (10 to 15 per well). The samples were assessed for mortality 5 days after infestation.

[5] = system: Spodoptera littoralis (Egyptian Cotton Leaf Worm); assay: Spodoptera littoralis (Egyptian Cotton Leaf Worm): feeding/contact activity; conditions: foliar, 72 h
Procedure: Spodoptera littoralis (Egyptian Cotton Leaf Worm): Feeding/Contact Activity
Cotton leaf discs were placed onto agar in 24-well microtiter plates and sprayed with aqueous test solutions prepared from 10′000 ppm DMSO stock solutions. After drying the leaf discs were infested with five L1 larvae. The samples were assessed for mortality 3 days after infestation.

[6] = system: Tetranychus urticae (Two-Spotted Spider Mite); assay: Tetranychus urticae (Two-Spotted Spider Mite): feeding/contact activity; conditions: foliar, 192 h, read-out: mortality on mixed population (mobile stages)
Procedure: Tetranychus urticae (Two-Spotted Spider Mite): Feeding/Contact Activity
Bean leaf discs on agar in 24-well microtiter plates were sprayed with aqueous test solutions prepared from 10′000 ppm DMSO stock solutions. After drying the leaf discs were infested with a mite population of mixed ages. The samples were assessed for mortality on mixed population (mobile stages) 8 days after infestation.

[7] = system: Thrips tabaci (Onion Thrips); assay: Thrips tabaci (Onion Thrips): feeding/contact activity; conditions: foliar, 144 h
Procedure: Thrips tabaci (Onion Thrips): Feeding/Contact Activity
Sunflower leaf discs were placed on agar in 24-well microtiter plates and sprayed with aqueous test solutions prepared from 10′000 ppm DMSO stock solutions. After drying the leaf discs were infested with a thrips population of mixed ages. The samples were assessed for mortality 6 days after infestation.

[8] = application rate 200 ppm, maize sprouts sprayed, L2 larvae, assessed 4 days after infestation, read-out: mortality
[9] = application rate 200 ppm, soybean leaves sprayed, N2 nymphs, assessed 5 days after infestation, read-out: mortality
[10] = application rate 200 ppm, sunflower leaf discs sprayed, aphid population of mixed ages, assessed 6 days after infestation, read-out: mortality
[11] = application rate 200 ppm, artificial diet treated by pipetting, L2 larvae, assessed 5 days after infestation, read-out: mortality
[12] = application rate 200 ppm, cotton leaf discs sprayed, L1 larvae, assessed 3 days after infestation, read-out: mortality
[13] = application rate 200 ppm, bean leaf discs sprayed, mite population of mixed ages, assessed 8 days after infestation
[14] = application rate 200 ppm, sunflower leaf discs sprayed, thrips population of mixed ages, assessed 6 days after infestation, read-out: mortality

Measured: mortality at 200 ppm

COCN(C(=O)c1cc(-c2cnn(-c3c(OC(F)F)c(C(F)(F)C(F)(F)F)nn3C)c2)ccc1Cl)C1(C#N)CC1 [Compound 1, 2-chloro-N-(1-cyanocyclopropyl)-5-[1-[4-(difluoromethoxy)-2-methyl-5-(1,1,2,2,2-pentafluoroethyl)pyrazol-3-yl]pyrazol-4-yl]-N-(methoxymethyl)benzamide]
≥ 80%: [1]; [8] | [2]; [9] | [3]; [10] | [4]; [11] | [5]; [12] | [6]; [13] | [7]; [14]

C#CCN(C(=O)c1cc(-c2cnn(-c3c(OC(F)F)c(C(F)(F)C(F)(F)F)nn3C)c2)ccc1Cl)C1CC1 [Compound 2, 2-chloro-N-cyclopropyl-5-[1-[4-(difluoromethoxy)-2-methyl-5-(1,1,2,2,2-pentafluoroethyl)pyrazol-3-yl]pyrazol-4-yl]-N-prop-2-ynyl-benzamide]
≥ 80%: [1]; [8] | [2]; [9] | [3]; [10] | [4]; [11] | [5]; [12] | [6]; [13] | [7]; [14]

Cn1nc(C(F)(F)C(F)(F)F)c(OC(F)F)c1-n1cc(-c2ccc(Cl)c(C(=O)N(CC#N)C3(C#N)CC3)c2)cn1 [Compound 3, 2-chloro-N-(1-cyanocyclopropyl)-N-(cyanomethyl)-5-[1-[4-(difluoromethoxy)-2-methyl-5-(1,1,2,2,2-pentafluoroethyl)pyrazol-3-yl]pyrazol-4-yl]benzamide]
≥ 80%: [1]; [8] | [2]; [9] | [3]; [10] | [4]; [11] | [5]; [12] | [6]; [13] | [7]; [14]

CC(C)OC(=O)N(C(=O)c1cc(-c2cnn(-c3c(OC(F)F)c(C(F)(F)C(F)(F)F)nn3C)c2)ccc1Cl)C1(C#N)CC1 [Compound 5, isopropyl N-[2-chloro-5-[1-[4-(difluoromethoxy)-2-methyl-5-(1,1,2,2,2-pentafluoroethyl)pyrazol-3-yl]pyrazol-4-yl]benzoyl]-N-(1-cyanocyclopropyl)carbamate]
≥ 80%: [1] | [2]; in Glycine max | [3] | [4] | [5] | [6] | [7]

CCOC(=O)N(C(=O)c1cc(-c2cnn(-c3c(OC(F)F)c(C(F)(F)C(F)(F)F)nn3C)c2)ccc1Cl)C1(C#N)CC1 [Compound 6, ethyl N-[2-chloro-5-[1-[4-(difluoromethoxy)-2-methyl-5-(1,1,2,2,2-pentafluoroethyl)pyrazol-3-yl]pyrazol-4-yl]benzoyl]-N-(1-cyanocyclopropyl)carbamate]
≥ 80%: [1] | [2]; in Glycine max | [3] | [4] | [5] | [6] | [7]

COC(=O)N(C(=O)c1cc(-c2cnn(-c3c(OC(F)F)c(C(F)(F)C(F)(F)F)nn3C)c2)ccc1Cl)C1(C#N)CC1 [Compound 7, methyl N-[2-chloro-5-[1-[4-(difluoromethoxy)-2-methyl-5-(1,1,2,2,2-pentafluoroethyl)pyrazol-3-yl]pyrazol-4-yl]benzoyl]-N-(1-cyanocyclopropyl)carbamate]
≥ 80%: [1] | [2]; in Glycine max | [3] | [4] | [5] | [6]

CC(=O)N(C(=O)c1cc(-c2cnn(-c3c(OC(F)F)c(C(F)(F)C(F)(F)F)nn3C)c2)ccc1Cl)C1(C#N)CC1 [Compound 8, N-acetyl-2-chloro-N-(1-cyanocyclopropyl)-5-[1-[4-(difluoromethoxy)-2-methyl-5-(1,1,2,2,2-pentafluoroethyl)pyrazol-3-yl]pyrazol-4-yl]benzamide]
≥ 80%: [1]; [8] | [2]; [9] | [3]; [10] | [4]; [11] | [5]; [12] | [6]; [13]

Cn1nc(C(F)(F)C(F)(F)F)c(OC(F)F)c1-n1cc(-c2ccc(Cl)c(C(=O)N(CC3CC3)C3(C#N)CC3)c2)cn1 [Compound 9, 2-chloro-N-(1-cyanocyclopropyl)-N-(cyclopropylmethyl)-5-[1-[4-(difluoromethoxy)-2-methyl-5-(1,1,2,2,2-pentafluoroethyl)pyrazol-3-yl]pyrazol-4-yl]benzamide]
≥ 80%: [1]; [8] | [2]; [9] | [3]; [10] | [4]; [11] | [5]; [12] | [6]; [13] | [7]; [14]

Cn1nc(C(F)(F)C(F)(F)F)c(OC(F)F)c1-n1cc(-c2ccc(Cl)c(C(=O)N(CC(F)(F)F)C3(C#N)CC3)c2)cn1 [Compound 10, 2-chloro-N-(1-cyanocyclopropyl)-5-[1-[4-(difluoromethoxy)-2-methyl-5-(1,1,2,2,2-pentafluoroethyl)pyrazol-3-yl]pyrazol-4-yl]-N-(2,2,2-trifluoroethyl)benzamide]
≥ 80%: [1]; [8] | [3]; [10] | [4]; [11] | [5]; [12] | [7]; [14]

CC(C)CN(C(=O)c1cc(-c2cnn(-c3c(OC(F)F)c(C(F)(F)C(F)(F)F)nn3C)c2)ccc1Cl)C1(C#N)CC1 [Compound 11, 2-chloro-N-(1-cyanocyclopropyl)-5-[1-[4-(difluoromethoxy)-2-methyl-5-(1,1,2,2,2-pentafluoroethyl)pyrazol-3-yl]pyrazol-4-yl]-N-isobutyl-benzamide]
≥ 80%: [1]; [8] | [2]; [9] | [3]; [10] | [4]; [11] | [5]; [12] | [7]; [14]

CC(C)C(=O)N(C(=O)c1cc(-c2cnn(-c3c(OC(F)F)c(C(F)(F)C(F)(F)F)nn3C)c2)ccc1Cl)C1(C#N)CC1 [Compound 12, 2-chloro-N-(1-cyanocyclopropyl)-5-[1-[4-(difluoromethoxy)-2-methyl-5-(1,1,2,2,2-pentafluoroethyl)pyrazol-3-yl]pyrazol-4-yl]-N-(2-methylpropanoyl)benzamide]
≥ 80%: [1]; [8] | [2]; [9] | [3]; [10] | [4]; [11] | [5]; [12] | [6]; [13]

CCOCN(C(=O)c1cc(-c2cnn(-c3c(OC(F)F)c(C(F)(F)C(F)(F)F)nn3C)c2)cnc1Cl)C1(C#N)CC1 [Compound 14, 2-chloro-N-(1-cyanocyclopropyl)-5-[1-[4-(difluoromethoxy)-2-methyl-5-(1,1,2,2,2-pentafluoroethyl)pyrazol-3-yl]pyrazol-4-yl]-N-(ethoxymethyl)pyridine-3-carboxamide]
≥ 80%: [1]; [8] | [2]; [9] | [3]; [10] | [4]; [11] | [5]; [12] | [6]; [13] | [7]; [14]
